Laboratory results reported in US6730679B1, “Pharmaceutical formulations” (SmithKline Beecham Corporation, priority 1996, dated 2004).

Assay: Aqueous solubility of the compound of formula (I)
Assay type: physicochemical
Description: Current formulations of HIV protease inhibitors for oral administration are in powder or tablet form. However, HIV protease inhibitors in these oral formulations are generally poorly soluble and, therefore, poorly bioavailable for the above reasons. […] In addition, the compound of formula (I) is poorly wetted. Therefore, formulating the compound using standard formulary techniques is difficult and leads in any event to a formulation with low bioavailability.

variation of aqueous solubility with pH (FIG. 1): does not significantly vary with pH
solubility (water (aqueous), room temperature): 95 µg/mL
Compound: CC(C)CN(C[C@@H](O)[C@H](Cc1ccccc1)NC(=O)O[C@H]1CCOC1)S(=O)(=O)c1ccc(N)cc1 (relative stereo) [compound of formula (I), 3S-[3R*(1R*, 2S*)]-[3-[[(4-aminophenyl)sulphonyl](2-methylpropyl)-amino]-2-hydroxy-1-phenylmethyl)propyl]carbamic acid, tetrahydro-3-furanyl ester]
